Patent US20250206704A1, “ENGINEERED IONOPHORES FOR TRANSPORT OF METAL IONS” (The Brigham and Women's Hospital, Inc., priority 2022, published 2025)
Read-outs that look alike come from different tables or passages of the source.

Assays:
bacteria vs U2OS cells = assay: Antibacterial selectivity (average molar MIC in bacteria vs EC50 in U2OS cells); format: cell-based
[1] = system: S. epidermidis, S. caprae, B. subtilis, B. cereus; assay: Average MIC over the four gram-positive strains; format: cell-based
Method: Next, Applicants evaluated the antibacterial activities of the ionophores. First, Applicants determined their minimum inhibitory concentration (MIC) in the gram-positive bacterium that causes hospital-acquired infections, Staphylococcus epidermidis.
The MIC assay was performed according to the Clinical and Laboratory Standards Institute protocols.^3 The antibacterial activities of the compounds were measured using the broth microdilution method. Serial dilutions of compounds were prepared in cation-adjusted Müller Hinton Broth. Each dilution (100 μL) was dispensed to each well of a round-bottom plate to obtain final concentrations ranging from 0.07815-40 μM. Bacteria were grown at 37° C. overnight on cation-adjusted Müller Hinton Broth. The bacterial solution was prepared in 0.9% saline and adjusted to obtain an OD600=0.1 using a SpectraMax M5 (Molecular Devices). The resultant suspension was diluted 1:20 with cation-adjusted Müller Hinton Broth. The resulting mixture (10 μL) was added to each well of the plates (approximately 5×10^4 CFU/well), mixed, and incubated at 37° C. for 24 h. The MIC value was determined as the minimum concentration that inhibited the growth of bacteria.

U2OS cells = assay: U2OS cell viability assay (CellTiter-Glo); format: cell-based; conditions: Homo sapiens, cell viability, 48 h, 5 μM Zn^II, read-out: U2OS EC50 + 5 μM Zn^II
Method: Applicants reasoned that limiting extracellular zinc with EDTA would abolish ionophore activity by depleting the available metal ions for membrane transport. […] [24]
U2OS cells were seeded in black 384-well plates at a density of 3,000 cells per well in 25 μL of medium per well. After seeding, the cells were left to adhere overnight. The compounds to be tested were added to the designated culture plates in 25 μL of medium in triplicate with a normalized DMSO concentration (0.05%) in all treatments, and the plates were placed at 37° C. in a humidified atmosphere containing 5% CO2. After 48 h, 40 μl of CellTiter-Glo (Promega) was added to each well and incubated for 30 min, after which the plate luminescence was analyzed in a PerkinElmer EnVision Manager 1.13 (PerkinElmer). The average growth of treated cells was calculated by correcting the values for background luminescence and was subsequently normalized to the average of the two lowest treatments of the compound in question. Data were plotted and fitted to a dose-response curve using GraphPad Prism 9.

[2] = UV/Vis titration, stability constant (logK) with ZnCl2; format: physicochemical; conditions: UV/Vis titration with ZnCl2, TitrationFit
Source text: Applicants validated the design principles by confirming that the silyl group lowered the binding affinity and shielded the hydrophilic pocket. […] [17] […] Applicants confirmed that all compounds bound Zn^II with 1:1 stoichiometry (FIG. 12). […] Applicants superimposed the X-ray structure of the TIPS-containing Zn^II:9 complex with the literature precedented Zn^II:1 and observed significant structural distortion in the Zn^II:9 complex, which could explain the lower logK.
A solution of ligand was prepared in acetonitrile. The starting concentration was chosen to be around 0.10 mM, based on the absorption maximum of the compound. This solution (2.5 mL) was pipetted into a quartz cuvette with a 1-cm optical path length. The titration was performed by the stepwise addition of a 10-mM ZnC12 solution in acetonitrile. The absorption spectra were measured over the range of 250-800 nm. The calculation of the stability constants was accomplished using TitrationFit.1

[3] = Co-incubation kinetic study of ligand exchange with DA-ZP1 in presence of compound and Zn(II); format: physicochemical; conditions: 10 μM compound with 10 μM Zn^II, then 5 μM DA-ZP1
Method: The compound in phosphate-buffered saline (PBS) was added to a 96-well microplate (250 μL, 10 μM per well, Nunc 96-well plates) and incubated with 10 μM of ZnCl2. […] Reaction kinetics were monitored by measuring the fluorescence of the activated fluorescein dye (λex=490 nm, λem=522 nm) over 2 h.

[4] = ratio of average molar MIC and U2OS EC50, Table 4
[5] = read-out: Average MIC (molar, in brackets)

SMILES | antibacterial selectivity (bacteria vs U2OS cells) [times] | antibacterial selectivity (bacteria vs U2OS cells; [4]) | MIC ([1]; read-out: Average MIC) [µg/mL] | MIC [1, 5] [µM] | CC50 (U2OS cells) [µM] | logK (Zn^II binding) [2] | MIC ([1]; read-out: average MIC) [µg/mL] | ligand exchange with DA-ZP1 (fluorescence increase) [3]
CC(C)(C)[Si](C)(C)c1cccc(CN(Cc2ccccn2)Cc2ccccn2)c1O [Compound 8, 2-((bis(pyridin-2-ylmethyl)amino)methyl)-6-(tert-butyldimethylsilyl)phenol] | 9.4 | 9.4 | 3.4 | 8.1 | 76.5 | 7.5 | – | –
CC(C)[Si](c1cccc(CN(Cc2ccccn2)Cc2ccccn2)c1O)(C(C)C)C(C)C [Compound 9, 2-((bis(pyridin-2-ylmethyl)amino)methyl)-6-(triisopropylsilyl)phenol] | 6.8 | 6.8 | 0.98 | 2.1 | 14.2 | 6.9 | 1 | rapid increase in fluorescence
